ChEMBL document CHEMBL1221220, “Transport and signaling via the amino acid binding site of the yeast Gap1 amino acid transceptor” (Nat Chem Biol, 2009)
Substitutions are numbered along the chain they refer to. Active and inactive are the calls of the source. No cut-off for these calls is given here.

Tests used:
[1] = test system: T1, General amino-acid permease GAP1 (Saccharomyces cerevisiae), P19145 [M401C]; assay: Activation of yeast Gap1 M401C mutant-mediated amino acid uptake at 10 mM
T1 sequence (whole entry): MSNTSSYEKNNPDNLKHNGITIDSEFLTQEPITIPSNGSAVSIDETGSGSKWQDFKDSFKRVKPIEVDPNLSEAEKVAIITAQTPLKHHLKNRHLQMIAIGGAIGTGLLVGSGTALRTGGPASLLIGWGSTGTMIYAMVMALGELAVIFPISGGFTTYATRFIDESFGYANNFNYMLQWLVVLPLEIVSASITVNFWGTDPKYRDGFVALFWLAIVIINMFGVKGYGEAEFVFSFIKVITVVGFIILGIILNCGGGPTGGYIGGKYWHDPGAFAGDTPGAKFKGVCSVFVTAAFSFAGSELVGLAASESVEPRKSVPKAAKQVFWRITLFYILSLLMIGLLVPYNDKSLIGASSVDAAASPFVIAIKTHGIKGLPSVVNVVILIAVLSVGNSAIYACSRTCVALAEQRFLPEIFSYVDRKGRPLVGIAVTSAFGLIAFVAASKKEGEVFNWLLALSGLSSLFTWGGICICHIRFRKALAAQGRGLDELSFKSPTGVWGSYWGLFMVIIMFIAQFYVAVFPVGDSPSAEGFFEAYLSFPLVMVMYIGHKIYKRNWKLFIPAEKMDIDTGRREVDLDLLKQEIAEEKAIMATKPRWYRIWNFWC

[2] = test system: General amino-acid permease GAP1 (Saccharomyces cerevisiae), P19145 [I394C]; assay: Inhibition of yeast Gap1 I394C mutant-mediated trehalose activation at 10 mM
Chain of General amino-acid permease GAP1 (Saccharomyces cerevisiae), P19145 [I394C] (P19145 whole entry I394C): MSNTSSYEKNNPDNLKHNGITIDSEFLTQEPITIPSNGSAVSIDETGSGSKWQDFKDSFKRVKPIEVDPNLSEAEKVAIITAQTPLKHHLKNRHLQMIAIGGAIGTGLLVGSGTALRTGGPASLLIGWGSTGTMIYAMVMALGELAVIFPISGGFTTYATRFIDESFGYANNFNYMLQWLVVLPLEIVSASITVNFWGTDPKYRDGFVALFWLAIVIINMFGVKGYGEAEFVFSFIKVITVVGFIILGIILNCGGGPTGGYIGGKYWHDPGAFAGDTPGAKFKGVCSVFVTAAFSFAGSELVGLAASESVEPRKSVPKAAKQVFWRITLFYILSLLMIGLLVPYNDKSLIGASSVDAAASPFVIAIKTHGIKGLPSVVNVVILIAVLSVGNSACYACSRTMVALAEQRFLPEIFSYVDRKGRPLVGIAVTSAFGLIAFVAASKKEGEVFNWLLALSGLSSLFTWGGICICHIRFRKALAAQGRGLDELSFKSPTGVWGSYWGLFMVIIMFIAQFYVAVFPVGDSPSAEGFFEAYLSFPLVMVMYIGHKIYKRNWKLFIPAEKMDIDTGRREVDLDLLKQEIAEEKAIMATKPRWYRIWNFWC

[3] = test system: T2, General amino-acid permease GAP1 (Saccharomyces cerevisiae), P19145 [C397C]; assay: Induction of yeast Gap1 C397C mutant-mediated trehalose activation at 10 mM
T2 sequence (whole entry): T1 sequence (whole entry) with C401M

[4] = test system: General amino-acid permease GAP1 (Saccharomyces cerevisiae), P19145 [S392C]; assay: Inhibition of yeast Gap1 S392C mutant-mediated trehalose activation at 10 mM
Chain of General amino-acid permease GAP1 (Saccharomyces cerevisiae), P19145 [S392C] (P19145 whole entry S392C): as the sequence (P19145 whole entry I394C) above, with S392C, C394I counted along it

[5] = test system: T3, General amino-acid permease GAP1 (Saccharomyces cerevisiae), P19145 [A396C]; assay: Induction of yeast Gap1 A396C mutant-mediated amino acid uptake at 2 mM in presence of 10 mM MTSEA treated before compound addition
T3 sequence (whole entry): T1 sequence (whole entry) with A396C, C401M

[6] = test system: T4, General amino-acid permease GAP1 (Saccharomyces cerevisiae), P19145 [I384C]; assay: Activation of yeast Gap1 I384C mutant-mediated amino acid uptake at 10 mM
T4 sequence (whole entry): T1 sequence (whole entry) with I384C, C401M

Activity [1]: inactive
inhibition [2]: Active
Activity [3]: inactive
inhibition [4]: Active
Activity [5]: Active
Activity [6]: inactive
Compound: NC(=O)NCCC[C@H](N)C(=O)O
